Results from patent US20070225278A1, “Methods for treating cognitive and other disorders” (priority 2006, published 2007).

How the values were obtained:
[1] = test system: extracellular glutamate levels in the rat mPFC; experiment: In vivo microdialysis, glutamate in medial prefrontal cortex; settings: 17 mg/kg s.c., acute
Experimental: (§1) Animals: Adult male Sprague-Dawley rats (Charles River, Wilmington, Mass.) weighing 280-350 g at the time of surgery were used for all microdialysis experiments. Adult male Long-Evans rats (Charles River, Wilmington, Mass.) weighing 180-220 g were used for NOR studies. Rats were housed individually for recognition memory studies. All animals had free access to food and water and were group housed in the AAALAC-accredited facility that was maintained on a 12 h light dark cycle (lights on at 0600 h) for at least 1 week prior to surgery or behavioral testing. All in vivo studies were performed in accordance to the ‘Guide for the Care and Use of Laboratory Animals’ as adopted and promulgated by the National Institutes of Health (Pub. 85-23, 1985).
Stereotaxic Surgery Following induction of anesthesia with 3% halothane (Fluothane; Zeneca, Cheshire, UK), animals were secured in a stereotaxic frame with ear and incisor bars (David Kopf, Tujunga, Calif.). Anesthesia was maintained by continuous administration of halothane (1-2%) while a microdialysis guide cannula (CMA/12, CMA Microdialysis, Stockholm, Sweden) was implanted above the medial prefrontal cortex (AP: 3.2 mm ML: −0.6 mm DV: −3.8 mm). […]
Dialysate (10 μL) f was collected and analyzed for extracellular glutamate concentrations. […]

[2] = test system: acetylcholine in medial prefrontal cortex; experiment: In vivo microdialysis, acetylcholine in medial prefrontal cortex; settings: 17 mg/kg s.c., rat
Experimental: as §1, with “1985). […]” for “1985).”
Analysis of Acetylcholine Dialysate levels of acetylcholine were determined using LC/MS/MS. […]
Acetylcholine data were quantified using peak area against an internal standard and acquired using Masslynx software (Micromass, Beverly, Mass., USA). The mean of the concentration of baseline samples was calculated and denoted as 0%. All sample values were expressed as a percent change from this pre-injection mean baseline value (% change from baseline). Neurochemical data, excluding pre-injection values, were analyzed by a two-way analysis of variance (ANOVA) with repeated measures (time). […]

c1cc2c3c(c1)[C@H]1CCC[C@H]1N3CCNC2 [Compound 1] was tested, and the “glutamate levels compared to vehicle-treated animals” value [1] was 210% and the “maximal increase in acetylcholine with respect to baseline” value [2] was 63%.
